Where two headings read alike, the source gives them in different places. Starred links: 1 amine or outer side, 2 acyl side, 3 side chain; linkers in the order of their positions; H or OH if unused. Non-standard residues stand in square brackets, D forms with d. Residues, ends and D or L forms follow the SMILES beside them. Groups on a side chain read outwards from the residue. No end group written: not given here. *: point of attachment. C18 diacid = O=C(O)CCCCCCCCCCCCCCCCC(=O)*; αMePhe(2-F) = C[C@](N)(Cc1ccccc1F)C(=O)O; γGlu = O=C(O)[C@H](CCC(=O)[*:2])N[*:1]; αMe4Pal = C[C@](N)(Cc1ccncc1)C(=O)O; αMeY = C[C@](N)(Cc1ccc(O)cc1)C(=O)O; 4Pal = N[C@@H](Cc1ccncc1)C(=O)O; αMeL = CC(C)C[C@](C)(N)C(=O)O; αMeS = C[C@](N)(CO)C(=O)O; Orn = NCCC[C@H](N)C(=O)O; AEEA = NCCOCCOCC(=O)O; Aib = CC(C)(N)C(=O)O
Tests used:
Type in all cases: cell-based
hGLP-1R [1] = molecular target: T1, hGLP-1R (Homo sapiens, UniProt P43220); assay: Functional cAMP activation in the presence of 0.1% casein (no HSA); conditions: read-out: Relative cAMP EC50, hGLP-1R;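 note: intracellular cAMP rise after 30 min at 37 °C read by HTRF, normalized between buffer only (0%) and maximal control ligand (100%), four-parameter variable-slope fit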
T1 sequence (P43220 24-463): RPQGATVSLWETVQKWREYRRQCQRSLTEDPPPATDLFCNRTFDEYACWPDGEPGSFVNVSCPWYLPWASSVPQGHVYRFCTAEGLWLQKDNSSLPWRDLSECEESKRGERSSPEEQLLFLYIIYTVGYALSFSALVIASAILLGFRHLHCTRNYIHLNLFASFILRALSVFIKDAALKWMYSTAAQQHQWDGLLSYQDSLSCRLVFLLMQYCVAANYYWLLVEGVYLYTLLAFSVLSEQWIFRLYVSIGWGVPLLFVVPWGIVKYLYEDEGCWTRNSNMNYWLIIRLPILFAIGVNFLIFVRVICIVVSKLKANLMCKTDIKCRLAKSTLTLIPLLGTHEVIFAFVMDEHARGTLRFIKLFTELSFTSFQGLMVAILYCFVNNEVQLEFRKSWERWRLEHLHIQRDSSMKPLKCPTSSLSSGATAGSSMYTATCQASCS

hGLP-1R [2] = molecular target: T1, hGLP-1R; assay: Functional cAMP activity in the presence of 1% HSA; conditions: read-out: cAMP Rel EC50, hGLP-1R
human GcgR = human GcgR (Homo sapiens, UniProt P47871); assay: Functional cAMP activity in the presence of 1% HSA; conditions: read-out: cAMP Rel EC50, hGcgR
Chain of human GcgR (P47871 26-477): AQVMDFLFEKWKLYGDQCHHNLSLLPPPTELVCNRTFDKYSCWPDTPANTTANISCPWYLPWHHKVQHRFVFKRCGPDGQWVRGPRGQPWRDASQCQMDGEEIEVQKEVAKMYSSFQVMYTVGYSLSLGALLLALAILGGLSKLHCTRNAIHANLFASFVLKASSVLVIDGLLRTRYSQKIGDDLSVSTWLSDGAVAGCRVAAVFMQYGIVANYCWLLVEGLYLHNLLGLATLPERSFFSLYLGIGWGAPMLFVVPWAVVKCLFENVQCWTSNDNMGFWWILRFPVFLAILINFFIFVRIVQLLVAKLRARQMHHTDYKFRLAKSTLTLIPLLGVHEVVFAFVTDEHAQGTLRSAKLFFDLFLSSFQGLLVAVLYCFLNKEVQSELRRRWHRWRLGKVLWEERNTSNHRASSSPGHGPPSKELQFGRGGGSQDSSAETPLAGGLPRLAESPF

hGIPR [3] = molecular target: T2, hGIPR (Homo sapiens, UniProt P48546); assay: Functional cAMP activation in the presence of 0.1% casein (no HSA); conditions: read-out: Relative cAMP EC50, hGIPR;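 note: intracellular cAMP rise after 30 min at 37 °C read by HTRF against a standard curve, scaled between buffer alone (0%) and top control ligand concentration (100%), four-parameter fit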
T2 sequence (P48546 22-466): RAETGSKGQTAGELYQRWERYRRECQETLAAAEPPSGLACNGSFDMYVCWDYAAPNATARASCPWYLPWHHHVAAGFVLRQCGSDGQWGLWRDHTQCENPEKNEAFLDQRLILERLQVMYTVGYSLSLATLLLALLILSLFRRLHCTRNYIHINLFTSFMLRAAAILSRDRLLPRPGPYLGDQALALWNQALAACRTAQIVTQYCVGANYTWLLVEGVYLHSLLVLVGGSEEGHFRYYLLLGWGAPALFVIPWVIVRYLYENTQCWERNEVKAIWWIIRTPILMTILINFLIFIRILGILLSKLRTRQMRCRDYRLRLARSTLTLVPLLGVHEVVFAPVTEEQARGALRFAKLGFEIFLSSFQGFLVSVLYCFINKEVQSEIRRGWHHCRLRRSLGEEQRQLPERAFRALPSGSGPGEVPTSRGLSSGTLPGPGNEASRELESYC

hGIPR [4] = molecular target: T2, hGIPR; assay: Functional cAMP activity in the presence of 1% HSA; conditions: read-out: cAMP Rel EC50, hGIPR
hGcgR = hGcgR (Homo sapiens, UniProt P47871); assay: Functional cAMP activation in the presence of 0.1% casein (no HSA); conditions: read-out: Relative cAMP EC50, hGcgR;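 note: intracellular cAMP rise after 30 min at 37 °C, read by HTRF against a cAMP standard curve, scaled from buffer only (0%) to maximal control ligand response (100%)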
Chain of hGcgR (P47871 26-477): as the sequence (P47871 26-477) above

[5] = in the presence of 0.1% casein (no HSA), geometric mean
[6] = 0.1% casein, no HSA, geometric mean

Row | EC50 (hGLP-1R [1]) [nM] | EC50 (hGIPR [3]) [nM] | EC50 (hGcgR) [nM] | Compound | EC50 (hGLP-1R [2]) [nM] | EC50 (human GcgR) [nM] | EC50 (hGIPR [4]) [nM] | EC50 (hGLP-1R [1]; [5]) [nM] | EC50 (hGIPR [3]; [5]) [nM] | EC50 (hGcgR; [5]) [nM] | EC50 (hGLP-1R [1]; [6]) [nM] | EC50 (hGIPR [3]; [6]) [nM] | EC50 (hGcgR; [6]) [nM]
1 | 0.562 | 0.031 | 1.34 | CC[C@H](C)[C@H](NC(=O)[C@H](Cc1ccccc1)NC(=O)[C@H](C)NC(=O)C(C)(C)NC(=O)[C@H](CCC(N)=O)NC(=O)[C@H](C)NC(=O)[C@H](CCCCNC(=O)COCCOCCNC(=O)COCCOCCNC(=O)CC[C@H](NC(=O)CCCCCCCCCCCCCCCCC(=O)O)C(=O)O)NC(=O)[C@H](CCCCN)NC(=O)[C@H](CC(=O)O)NC(=O)[C@H](CC(C)C)NC(=O)[C@H](CC(C)C)NC(=O)[C@@H](NC(=O)[C@](C)(CO)NC(=O)[C@H](Cc1ccc(O)cc1)NC(=O)[C@H](CC(=O)O)NC(=O)[C@H](CO)NC(=O)[C@@H](NC(=O)[C@](C)(Cc1ccccc1F)NC(=O)[C@@H](NC(=O)CNC(=O)[C@H](CCC(N)=O)NC(=O)C(C)(C)NC(=O)[C@@H](N)Cc1ccc(O)cc1)[C@@H](C)O)[C@@H](C)O)[C@@H](C)CC)C(=O)N[C@@H](CCC(=O)O)C(=O)N[C@@H](Cc1ccc(O)cc1)C(=O)N[C@@H](CC(C)C)C(=O)N[C@@H](CCC(=O)O)C(=O)N[C@@H](CCC(=O)O)C(=O)NCC(=O)NCC(=O)N1CCC[C@H]1C(=O)N[C@@H](CO)C(=O)N[C@@H](CO)C(=O)NCC(=O)N[C@@H](CCC(=O)O)C(=O)N1CCC[C@H]1C(=O)N1CCC[C@H]1C(=O)N1CCC[C@H]1C(=O)N[C@@H](CCC(=O)O)C(N)=O [Example 469] (H-Y[Aib]QGT[αMePhe(2-F)]TSDY[αMeS]ILLDKK([AEEA-AEEA-γGlu-C18 diacid])AQ[Aib]AFIEYLEEGGPSSGEPPPE-NH2) | 61.7 | 155 | 4.24 |  |  |  |  |  | 
2 |  |  |  | CC[C@H](C)[C@H](NC(=O)[C@H](Cc1ccccc1)NC(=O)[C@H](C)NC(=O)C(C)(C)NC(=O)[C@H](CCC(N)=O)NC(=O)[C@H](C)NC(=O)[C@H](CCCCNC(=O)COCCOCCNC(=O)CC[C@H](NC(=O)CCCCCCCCCCCCCCCCC(=O)O)C(=O)O)NC(=O)[C@H](CCCCN)NC(=O)[C@H](CC(=O)O)NC(=O)[C@H](CC(C)C)NC(=O)[C@](C)(CC(C)C)NC(=O)[C@H](CCCN)NC(=O)[C@H](CO)NC(=O)[C@H](Cc1ccccc1)NC(=O)[C@H](CC(=O)O)NC(=O)[C@H](CO)NC(=O)[C@@H](NC(=O)[C@H](Cc1ccccc1)NC(=O)[C@@H](NC(=O)CNC(=O)[C@H](CCC(N)=O)NC(=O)C(C)(C)NC(=O)[C@@H](N)Cc1ccc(O)cc1)[C@@H](C)O)[C@@H](C)O)C(=O)N[C@@H](CCC(=O)O)C(=O)N[C@@H](Cc1ccc(O)cc1)C(=O)N[C@@H](CC(C)C)C(=O)N[C@@H](CC(C)C)C(=O)N[C@@H](CCC(=O)O)C(=O)N[C@H](C)C(=O)NCC(=O)N1CCC[C@H]1C(=O)N[C@@H](CO)C(=O)N[C@@H](CO)C(=O)NCC(=O)N[C@@H](C)C(=O)N1CCC[C@H]1C(=O)N1CCC[C@H]1C(=O)N1CCC[C@H]1C(=O)N[C@@H](CO)C(=O)NCC(=O)N[C@@H](Cc1c[nH]cn1)C(N)=O [Example 259] | 220 | 317 | 18.4 | 1.47 | 0.114 | 2.55 |  |  | 
3 | 0.636 | 0.0624 | 1.89 | CC[C@H](C)[C@H](NC(=O)[C@H](Cc1ccccc1)NC(=O)[C@H](CCCN)NC(=O)C(C)(C)NC(=O)[C@H](CCC(N)=O)NC(=O)[C@H](C)NC(=O)[C@H](CCCCNC(=O)COCCOCCNC(=O)CC[C@H](NC(=O)CCCCCCCCCCCCCCCCC(=O)O)C(=O)O)NC(=O)[C@H](CCCN)NC(=O)[C@H](CC(=O)O)NC(=O)[C@H](CC(C)C)NC(=O)[C@](C)(CC(C)C)NC(=O)[C@@H](NC(=O)[C@](C)(CO)NC(=O)[C@H](Cc1ccncc1)NC(=O)[C@H](CC(=O)O)NC(=O)[C@H](CO)NC(=O)[C@@H](NC(=O)[C@](C)(Cc1ccccc1F)NC(=O)[C@@H](NC(=O)CNC(=O)[C@H](CCC(N)=O)NC(=O)C(C)(C)NC(=O)[C@@H](N)Cc1ccc(O)cc1)[C@@H](C)O)[C@@H](C)O)[C@@H](C)CC)C(=O)N[C@H](CCC(=O)O)C(=O)N[C@@H](Cc1ccc(O)cc1)C(=O)N[C@@H](CC(C)C)C(=O)N[C@@H](CC(C)C)C(=O)N[C@@H](CCC(=O)O)C(=O)NCC(=O)NCC(=O)N1CCC[C@H]1C(=O)N[C@@H](CO)C(=O)N[C@@H](CO)C(=O)NCC(=O)N[C@@H](CCC(=O)O)C(=O)N1CCC[C@H]1C(=O)N1CCC[C@H]1C(=O)N1CCC[C@H]1C(=O)N[C@@H](CCC(=O)O)C(N)=O [Example 460] (H-Y[Aib]QGT[αMePhe(2-F)]TSD[4Pal][αMeS]I[αMeL]LD[Orn]K([AEEA-γGlu-C18 diacid])AQ[Aib][Orn]FI[dE]YLLEGGPSSGEPPPE-NH2) | 31.1 | 142 | 8.93 |  |  |  |  |  | 
4 | 0.26 | 0.0117 | 2.46 | Y[Aib]QGT[αMePhe(2-F)]TSD[4Pal]SI[αMeL]LD[Orn]K([AEEA-γGlu-C18 diacid])AQ[αMe4Pal][Orn]FI[dE][αMeY]LIEGGPSSGEPPPEGT[dE]-NH2 [Example 691] | 28.9 | 308 | 1.17 |  |  |  |  |  | 
5 |  |  |  | Y[Aib]QGTFTSD[4Pal]SQ[αMeL]LDKK([Glu-γGlu-C18 diacid])AQ[αMe4Pal]AFIEYLIAGGPSSGAPPPSGE-NH2 [Example 1086] | 496 | 3140 | 21.2 | 1.23 | 0.117 | 12 |  |  | 
6 |  |  |  | H-Y[Aib]QGTFTSD[4Pal]SQ[αMeL]LDKK([γGlu-γGlu-C18 diacid])AQ[αMe4Pal]QFIE[αMeY]LIEGGPSSGAPPPSGS-NH2 [Example 934] | 175 | 1380 | 28.1 | 0.649 | 0.0738 | 2.73 |  |  | 
7 |  |  |  | H-Y[Aib]QGT[αMePhe(2-F)]TSD[4Pal][αMeS]I[αMeL]LD[Orn]K([γGlu-γGlu-C18 diacid])AQ[αMe4Pal]EFI[dE][αMeY]LIEGGPSSGAPPPEGGGEE-NH2 [Example 1220] | 48.5 | 168 | 0.609 |  |  |  | 0.674 | 0.0099 | 1.57

Row | Compound | EC50 (hGLP-1R [1]) [nM] | EC50 (hGIPR [3]) [nM] | EC50 (hGcgR) [nM] | EC50 (hGLP-1R [2]) [nM] | EC50 (human GcgR) [nM] | EC50 (hGIPR [4]) [nM] | EC50 (hGLP-1R [1]; [5]) [nM] | EC50 (hGIPR [3]; [5]) [nM] | EC50 (hGcgR; [5]) [nM] | EC50 (hGLP-1R [1]; [6]) [nM] | EC50 (hGIPR [3]; [6]) [nM] | EC50 (hGcgR; [6]) [nM]
8 | Y[Aib]QGT[αMePhe(2-F)]TSD[4Pal][αMeS]I[αMeL]LD[Orn]K([AEEA-γGlu-C18 diacid])AA[Aib]EFI[dE][αMeY]LIEGGPSSGAPPPSGGGE-NH2 [Example 745] | 0.212 | 0.012 | 1.86 | 29 | 266 | 1.36 |  |  |  |  |  | 

— patent US20240270821A1, “GIP/GLP1/GCG TRI-RECEPTOR AGONISTS AND USES THEREOF” (priority 2023, published 2024)
